Five compounds from article PMC6424996, “Effect of peptide-conjugated nanoparticles on cell lines” (Progress in Biomaterials, 2019) can be followed below.

Holding throughout (assay type): cell-based
Series [1] relates to NIH3T3 (Mouse embryo fibroblast) cells. The series is described as follows: Cytotoxicity on normal NIH3T3 cells (MTT assay). How it is done:
Above-mentioned peptides (P1, P2, P3, P4, and P5) obtained from other sources were screened for cytotoxicity by MTT assay on NIH3T3 (Mouse embryo fibroblast) cells (normal) and HT-29 (Colon carcinoma) cells (cancerous) by MTT assay. Different concentrations of the peptides (1 μL, 3 μL, […], 10 μL, 20 μL) were used to treat the cancerous and normal cells consecutively (Inkielewicz-Stepniak et al. [2014]). The percentage inhibition was calculated.

Series [2] deals with MDA MB-231 cells. Nature of the series: PI/AO staining for dead/live cells, MDA MB-231. Conditions: MDA MB-231, 1 µg/mL, 24 h, Figs. 7, 9. Here is the method: (§1) HT-29 and MDA MB-231 cells were plated at a density of 1 × 10^6 cells/mL in 6-well tissue culture plates. They were treated with 1 µg/mL each of AgNP, AuNP, P1, P1–AgNP and P1–AuNP conjugated samples and were incubated in at 37 °C in 5% CO2 for 24 h. The cells were then harvested and washed twice using PBS after centrifugation at 2000 rpm for 5 min. An equal volume (10 µg/mL) of fluorescent dyes, propidium iodide (PI)/acridine orange (AO) was added to the cellular pellet. These freshly stained cells were observed under an inverted fluorescent microscope within 30 min (Banerjee and Ravishankar [2017]).
(§2) The nucleic acid-binding dyes propidium iodide (PI) and acridine orange (AO) help us to detect the dead cells and live cells under the microscope. AO permeates both dead and live cells; thus, it stains all nucleated cells to generate green fluorescence, whereas PI identifies the dead cells only and fluoresce red. The treated cancer cells were both stained with PI and AO equally, and were observed under fluorescence microscope. The results are obtained on swapping of the images to have an apparent understanding of the drug effects (Hajrezaie et al [2015]; Hajiaghaalipour et al [2015]).

Series [3] deals with HT-29 (Colon carcinoma) cells. The series is described as follows: Screening of cytotoxic activity of peptides by MTT assay on HT-29 cells. Conditions: for % inhibition (peptide screening): HT-29 cancerous cells, MTT, Fig. 1.
Experimental: Different concentrations of the peptides (1 μL, 3 μL, 5 L, 10 μL, 20 μL) were used to treat the cancerous and normal cells consecutively (Inkielewicz-Stepniak et al. [2014]). The percentage inhibition was calculated.
In series [4] the test system is HT-29 (Colon carcinoma) cells. Nature of the series: MTT assay of nanoparticles, P1 and conjugates on HT-29. Conditions: 24 h exposure, 5000 cells/well, 570 nm, triplicates. How it is done:
Cell lines were acquired from NCCS—National Centre for Cell Science, Pune, India. The HT-29 (Colon carcinoma) and MDA MB-231 (Breast cancer) cells were plated into 25-mm^2 T-flasks after thawing them at 37 °C in a water bath for few minutes. The thawed cells were transferred in a centrifuge tube and centrifuged for 3 min at 2000 rpm/min. The cells were, thus, collected discarding the supernatant and mixed well in Dulbecco’s modified Eagle’s medium (DMEM) solution with 12% fetal bovine serum, and antibiotics (streptopenicillin and amphotericin B solution, Sigma). Later, they were plated in 25 mm^2 in the same DMEM solution, individually. The T-flasks containing the cells were incubated for 24 h in humidified environment with 5% CO2. These cells after 24 h were washed with phosphate buffer saline (PBS). The medium was regularly changed for the cells to reach 50% confluence (Hajiaghaalipour et al [2015]). To check the viability of cells, MTT assay was carried out and 96-well plates were used to seed the cell lines of interest at 5000 cells/well and incubated overnight at 37 °C in an incubator with 5% CO2. After incubation, the cells were treated with different concentrations (1, 5, 10 μg/mL) of P1, AgNPs, AuNPs, P1–AgNP and P1–AuNP conjugates. The plates along with the treated cells were again incubated for 24 h at the same condition. […] The measurement of MTT assay was analyzed with Elisa Reader (Thermo Scientific, Multiskan Spectrum) at 570 nm (Inkielewicz-Stepniak et al [2014]). Percentage inhibition of cells was calculated according to the following equation: Cytotoxicity(%)=(experimentalabsorbance570nmofexposedcells/absorbance570nmofunexposedcells)×100.
All experiments were done in triplicates and the results were represented as mean ± SEM. The experimental data were read by two-way analysis of variance (ANNOVA). […] The IC-50 value was calculated using Microsoft Excel 2007 software (logarithmic transformation of X values and nonlinear regression sigmoidal dose–response analysis with variable slope—with bottom and top constraints set at 0 and 100, resp.).

The test system of series [5] is MDA MB-231 (Breast cancer) cells. The series is described as follows: MTT assay of nanoparticles, P1 and conjugates on MDA MB-231. The following applies: for % inhibition: MTT, 24 h exposure, 5000 cells/well, 570 nm, triplicates. Here is the method:
Cell lines were acquired from NCCS—National Centre for Cell Science, Pune, India. The HT-29 (Colon carcinoma) and MDA MB-231 (Breast cancer) cells were plated into 25-mm^2 T-flasks after thawing them at 37 °C in a water bath for few minutes. The thawed cells were transferred in a centrifuge tube and centrifuged for 3 min at 2000 rpm/min. The cells were, thus, collected discarding the supernatant and mixed well in Dulbecco’s modified Eagle’s medium (DMEM) solution with 12% fetal bovine serum, and antibiotics (streptopenicillin and amphotericin B solution, Sigma). Later, they were plated in 25 mm^2 in the same DMEM solution, individually. The T-flasks containing the cells were incubated for 24 h in humidified environment with 5% CO2. These cells after 24 h were washed with phosphate buffer saline (PBS). The medium was regularly changed for the cells to reach 50% confluence (Hajiaghaalipour et al [2015]). To check the viability of cells, MTT assay was carried out and 96-well plates were used to seed the cell lines of interest at 5000 cells/well and incubated overnight at 37 °C in an incubator with 5% CO2. After incubation, the cells were treated with different concentrations (1, 5, 10 μg/mL) of P1, AgNPs, AuNPs, P1–AgNP and P1–AuNP conjugates. The plates along with the treated cells were again incubated for 24 h at the same condition. The stored stock of MTT solution was added to the control and treated cell line samples, and again incubated at 37 °C for 2–3 h. After incubation, the media were carefully removed from the wells and mixed with solubilizing buffer. A purple color solution was visible at this stage. The control solution (without incorporation of nanoparticles/pure incubated cells) and treated samples were again incubated for an hour at 37 °C to ensure that the formazan precipitate was dissolved. The measurement of MTT assay was analyzed with Elisa Reader (Thermo Scientific, Multiskan Spectrum) at 570 nm (Inkielewicz-Stepniak et al [2014]). Percentage inhibition of cells was calculated according to the following equation: Cytotoxicity(%)=(experimentalabsorbance570nmofexposedcells/absorbance570nmofunexposedcells)×100.
All experiments were done in triplicates and the results were represented as mean ± SEM. The experimental data were read by two-way analysis of variance (ANNOVA). Differences were considered significant at p < 0.05. The IC-50 value was calculated using Microsoft Excel 2007 software (logarithmic transformation of X values and nonlinear regression sigmoidal dose–response analysis with variable slope—with bottom and top constraints set at 0 and 100, resp.).

Series [6] concerns HT-29 cells. The series is described as follows: PI/AO staining for dead/live cells, HT-29. Conditions: HT-29, 1 µg/mL, 24 h, Figs. 6, 8. How it is done:
as §1, §2

Values joined by “and” are separate entries in the source; they are usually repeats but may differ in a detail not shown here. Equal values may be shown once. Where a SMILES comes first, the peptide text is derived from it.

For `COC(=O)[C@H](CC(C)C)NC(=O)[C@H]1CCCN1C(=O)[C@H](CC(C)C)NC(=O)OC(C)(C)C` [Peptide P1, Boc-L-^DP-L-OMe] (HELM PEPTIDE1{[CC(C)(C)OC(=O)[*:2]].L.[dP].L.[CO[*:1]]}$$$$V2.0), the “change of NIH3T3 cells due to treatment” value in series [1] is listed as “do not show much change”. Further, the “PI/AO fluorescent staining, observed state of the cells” value in series [2] was “a number of apoptotic cells as well and very few dead cells”; in series [6], “a number of apoptotic cells as well and very few dead cells”. Moreover, the “IC50 rank among the five peptides” value in series [3] (HT-29, MTT, Fig. 1 legend) was “best IC50 value”. Besides, the “% inhibition (peptide screening)” value in series [3] (lowest concentration 1 µg/mL) amounted to 23.22%. Also, the “% inhibition” value is ~ 19% and 19.69% in series [4] (HT 29, 1 µg/mL); 22.05% in series [4] (HT 29, 5 µg/mL); 27.72% in series [4] (HT 29, 10 µg/mL); 29.98% in series [5] (MDA MB 231, 1 µg/mL); 37.11% in series [5] (MDA MB 231, 5 µg/mL); 60.69% in series [5] (MDA MB 231, 10 µg/mL). In series [5] (MDA MB-231, MTT, Fig. 5b/5d, concentration not given), the “inhibition of up to (concentration not given)” value is listed as “around 29%”.
For (U^BF)4-OMe [Peptide P2], the “% inhibition (peptide screening)” value in series [3] (lowest concentration 1 µg/mL) is given as 15.93%.
On to Boc-P-A-OH [Peptide P3], for which the “% inhibition (peptide screening)” value in series [3] (lowest concentration 1 µg/mL) was 9.12%.
As for Boc-P-U-OH [Peptide P4], the “% inhibition (peptide screening)” value in series [3] (5 µg/mL) is on record as “around 20%”.
Turning to Boc-βGly-βGly-OMe [Peptide P5], the “% inhibition (peptide screening)” value in series [3] (5 µg/mL) is “around 20%”.
